The values that follow come from US20030148498A1, “Microorganism overproducing 5'-xanthylic acid” (priority 2001, published 2003).

Assay [1] relates to Mutant strain CJXPK001. The assay is described as follows: Growth of mutant strain in minimum medium with 3,4-dehydroproline. Format: cell-based, Corynebacterium ammoniagenes. Details: key: +: growth; −: no growth. To be noted: 30° C., 5 days. The method, then: (§1) To be more specific, in this innovative research, we adopted Corynebacterium ammoniagenes KFCC 10743 as parent strain and treated it with UV radiation and mutation derivatives such as N-methyl-N′-nitro-N-nitrosoguanidine (NTG) according to ordinary procedure and, by adding 0 to 50 mg/L of proline analogue 3,4-dehydroproline (Sigma Company) in the minimum medium shown in the following Table 1, we developed growing mutant strains. From them, a strain which grows in 30 mg/L 3,4-dehydroproline was separated, named CJXPK001. And, it was deposited under the Budapest Treaty to the Korea Culture Center of Microorganisms on Dec. 7, 2001 with accession Number KCCM 10340.
(§2) Further, after adding 0 to 50 mg/L of 3,4-dehydroproline in the minimum medium shown in the above Table 1 according to concentration levels, the medium was fermented at 30° C. for 5 days. And the whole process was scrutinized to find the growth rates of the mutant strain CJXPK001 and the parent strain KFCC 10743.

Assay [2] relates to Parent strain KFCC 10743. The assay is described as follows: Growth of parent strain in minimum medium with 3,4-dehydroproline. In kind it is cell-based, Corynebacterium ammoniagenes. Set-up: key to growth: +: growth; −: no growth. To be noted: 5 days; for growth: 30° C. The method, then:
as §1, §2

[3] abbreviates: parent strain KFCC 10743, 30° C.

For the molecule `O=C(O)C1C=CCN1` (centres unmarked) [3,4-dehydroproline], the growth entry in assay [1] (3,4-dehydroproline 30 mg/L) is given as “+”; in assay [1] (3,4-dehydroproline 40 mg/L), “−”; in assay [1] (3,4-dehydroproline 50 mg/L), “−”; in assay [2] (3,4-dehydroproline 5 mg/L) it was “+”; in assay [2] (3,4-dehydroproline 10 mg/L), “−”; in assay [2] (3,4-dehydroproline 20 mg/L), “−”. The growth entry in assay [2] (3,4-dehydroproline 30 mg/L), in assay [2] (3,4-dehydroproline 40 mg/L) and in assay [2] (3,4-dehydroproline 50 mg/L) was “−” in each case. In addition, in assay [2] (setting [3]), the “3,4-dehydroproline concentration at which the strain showed resistance” value turned out to be 5 mg/L. In addition, in assay [2] (setting [3]), the “3,4-dehydroproline concentration level at which no growth was observed” value is given as “above 10 mg/L”.
